Counter-ions that a name gives are not always drawn.
Columns and labels:
Assay type in all cases: in vivo
[1] = system: AVEFA (Avena fatua L., wild oat); experiment: Example III postemergence foliar-applied mixtures, row crop weeds (corn, soybean), greenhouse: AVEFA
Experimental: (§1) Seeds or nutlets of the desired test plant species were planted in a soil matrix prepared by mixing a loam or sandy loam soil (e.g., 43 percent silt, 19 percent clay, and 38 percent sand, with a pH of about 8.1 and an organic matter content of about 1.5 percent) and calcareous grit in an 80 to 20 ratio. The soil matrix was contained in plastic pots with a surface area of 84.6 square centimters (cm^2) and a volume of 560 cubic centimeters (cm^3). […] The plants were grown for 7-31 days (d) in a greenhouse with an approximate 15 hour (h) photoperiod which was maintained at about 23-29° C. during the day and 22-28° C. during the night. Nutrients (Peters Excel® 15-5-15 5-Ca 2-Mg) and water were added on a regular basis and supplemental lighting was provided with overhead metal halide 1000-Watt lamps as necessary. The plants were employed for testing when they reached the first, second, or third true leaf stage.
(§2) Treatments consisted of the acid or esters of 4-amino-3-chloro-5-fluoro-6-(4-chloro-2-fluoro-3-methoxy-phenyl)pyridine-2-carboxylic acid (Compound A), each formulated as an
(§3) SC (suspension concentrate), and various herbicidal components alone and in combination. Forms of compound A were applied on an acid equivalent basis.
(§4) Other herbicidal components were applied on an acid equivalent or active ingredient basis and included the 5-enolpyruvylshikimate-3-phosphate synthase (EPSPS)-inhibiting herbicide, glyphosate dimethylamine salt, formulated as Durango DMA® and the glutamine synthase (GS)-inhibiting herbicide, glufosinate ammonium, formulated as Ignite® 280.
(§5) For treatments comprised of formulated compounds, measured amounts of compounds were placed individually in 25 mL glass vials and diluted in a volume of 1.5% (v/v) Agri-dex® crop oil concentrate to obtain 6× stock solutions. […] Application solutions were prepared by adding an appropriate amount of each stock solution (typically 2 mL) and diluted to the appropriate final concentrations with the addition of an aqueous mixture of 1.5% (v/v) crop oil concentrate and water so that the final spray solutions contained 1.25% (v/v) crop oil concentrate.
(§6) All stock solutions and applications solutions were visually inspected for compound compatibility prior to application. Compound requirements are based upon a 12 mL application volume at a rate of 187 liters per hectare (L/ha). Formulated compounds were applied to the plant material with an overhead Mandel track sprayer equipped with 8002E nozzles calibrated to deliver 187 L/ha over an application area of 0.503 square meters (m^2) at a spray height of 18 to 20 inches (46 to 50 cm) above the average plant canopy height. Control plants were sprayed in the same manner with the solvent blank.
(§7) The treated plants and control plants were placed in a greenhouse as described above and watered by sub-irrigation to prevent wash-off of the test compounds. After approximately 2 weeks, the condition of the test plants as compared with that of the untreated plants was determined visually and scored on a scale of 0 to 100 percent where 0 corresponds to no injury or growth inhibition and 100 corresponds to complete kill.
(§8) The following equation was used to calculate the expected activity of mixtures containing two active ingredients, A and B: […]

[2] = system: ELEIN (Eleusine indica (L.) Gaertn., goosegrass); experiment: Example III postemergence foliar-applied mixtures, row crop weeds (corn, soybean), greenhouse: ELEIN
Experimental: as §1, §2, §3, §4, §5, §6, §7, §8

[3] = system: IPOHE (Ipomoea hederacea Jacq., morning glory, ivyleaf); experiment: Example IV postemergence foliar-applied mixtures, general weed control, greenhouse: IPOHE
Experimental: (§9) The treated plants and control plants were placed in a greenhouse as described above and watered by sub-irrigation to prevent wash-off of the test compounds. After approximately 3 weeks, the condition of the test plants as compared with that of the untreated plants was determined visually and scored on a scale of 0 to 100 percent where 0 corresponds to no injury or growth inhibition and 100 corresponds to complete kill.
(§10) Colby's equation was used to determine the herbicidal effects expected from the mixtures (Colby, S. R. 1967. Calculation of the synergistic and antagonistic response of herbicide combinations. Weeds 15:20-22.) .
The following equation was used to calculate the expected activity of mixtures containing two active ingredients, A and B:
A=observed efficacy of active ingredient A at the same concentration as used in the mixture.
B=observed efficacy of active ingredient B at the same concentration as used in the mixture.

[4] = system: CYPES (Cyperus esculentus L., yellow nutsedge); experiment: Example IV postemergence foliar-applied mixtures, general weed control, greenhouse: CYPES
Experimental: as §1, with “Sun Gro Metro-Mix® 360 planting mixture, which typically has” for “a soil matrix prepared by mixing a loam or sandy loam soil (e.g., 43 percent silt, 19 percent clay, and 38 percent sand, with”, “6.0 to 6.8” for “about 8.1”, “30 percent,” for “1.5 percent) and calcareous grit in an 80 to 20 ratio. The soil matrix was contained”, “square” for “square centimters (cm^2) and a volume of 560 cubic”, “(cm^2).” for “(cm^3).”
(§11) Treatments consisted of the acid or the benzyl ester of 4-amino-3-chloro-5-fluoro-6-(4-chloro-2-fluoro-3-methoxy-phenyl)pyridine-2-carboxylic acid (Compound A), each formulated as an SC, and various herbicidal components alone and in combination. Forms of compound A were applied on an acid equivalent basis.
as §4
(§12) For treatments comprised of formulated compounds, measured amounts of compounds were placed individually in 25 mL glass vials and diluted in a volume of 1.25% (v/v) Agri-dex crop oil concentrated to obtain 12× stock solutions. […] Application solutions were prepared by adding an appropriate amount of each stock solution (typically 1 mL) and diluted to the appropriate final concentrations with the addition of 10 mL of an aqueous mixture of 1.25% (v/v) Agri-dex crop oil concentrate so that the final spray solutions contained 1.25% (v/v) Agri-dex crop oil concentrate.
as §6, §9, §10

[5] = system: CIRAR (Cirsium arvense (L.) Scop., Canada thistle); experiment: Example IV postemergence foliar-applied mixtures, general weed control, greenhouse: CIRAR (Table 17, species inferred from b27)
Experimental: as §1, with “Sun Gro Metro-Mix® 360 planting mixture, which typically has” for “a soil matrix prepared by mixing a loam or sandy loam soil (e.g., 43 percent silt, 19 percent clay, and 38 percent sand, with”, “6.0 to 6.8” for “about 8.1”, “30 percent,” for “1.5 percent) and calcareous grit in an 80 to 20 ratio. The soil matrix was contained”, “square” for “square centimters (cm^2) and a volume of 560 cubic”, “(cm^2).” for “(cm^3).”
as §11, §4, §12, §6, §9, §10

[6] = system: DIGSA (Digitaria sanguinalis (L.) Scop., large crabgrass); experiment: Example IV postemergence foliar-applied mixtures, general weed control, greenhouse: DIGSA
Experimental: as §1, with “Sun Gro Metro-Mix® 360 planting mixture, which typically has” for “a soil matrix prepared by mixing a loam or sandy loam soil (e.g., 43 percent silt, 19 percent clay, and 38 percent sand, with”, “6.0 to 6.8” for “about 8.1”, “30 percent,” for “1.5 percent) and calcareous grit in an 80 to 20 ratio. The soil matrix was contained”, “square” for “square centimters (cm^2) and a volume of 560 cubic”, “(cm^2).” for “(cm^3).”
as §11, §4, §12, §6, §9, §10

[7] = system: AMARE (Amaranthus retroflexus L., redroot pigweed); experiment: Example IV postemergence foliar-applied mixtures, general weed control, greenhouse: AMARE (Table 17, species inferred from b27)
Experimental: as §1, with “Sun Gro Metro-Mix® 360 planting mixture, which typically has” for “a soil matrix prepared by mixing a loam or sandy loam soil (e.g., 43 percent silt, 19 percent clay, and 38 percent sand, with”, “6.0 to 6.8” for “about 8.1”, “30 percent,” for “1.5 percent) and calcareous grit in an 80 to 20 ratio. The soil matrix was contained”, “square” for “square centimters (cm^2) and a volume of 560 cubic”, “(cm^2).” for “(cm^3).”
as §11, §4, §12, §6, §9, §10

[8] = Compound A Acid alone, 7.5 gae/ha
[9] = Compound A Acid alone, 15 gae/ha
[10] = Compound A Benzyl Ester 2 gae/ha alone
[11] = Compound A Benzyl Ester 4 gae/ha alone
[12] = Compound A Benzyl Ester 8 gae/ha alone
[13] = Compound A Benzyl Ester 16 gae/ha alone
[14] = Compound A Benzyl Ester 32 gae/ha alone
[15] = Compound A Benzyl Ester 2 gae/ha alone, 18 DAA
[16] = Compound A Benzyl Ester 4 gae/ha alone, 18 DAA
[17] = Compound A Benzyl Ester 8 gae/ha alone, 18 DAA
[18] = Compound A Benzyl Ester alone, 2 gae/ha
[19] = Glufosinate ammonium salt 225 gai/ha alone
[20] = Glufosinate ammonium salt 225 gai/ha alone, 18 DAA
[21] = glufosinate ammonium alone, 28.25 gae/ha
[22] = glufosinate ammonium alone, 56.5 gae/ha

## COc1c(Cl)ccc(-c2nc(C(=O)O)c(Cl)c(N)c2F)c1F [Compound A Acid, 4-amino-3-chloro-6-(4-chloro-2-fluoro-3-methoxyphenyl)-5-fluoropyridine-2-carboxylic acid]
[1]; Compound A Acid alone, 3.75 gae/ha
  Visual Weed Control (%) - 16 DAA AVEFA Obs: 0%
[1]; [8]
  Visual Weed Control (%) - 16 DAA AVEFA Obs: 0%
[1]; [9]
  Visual Weed Control (%) - 16 DAA AVEFA Obs: 10%
[2]; [8]
  Visual Weed Control (%) - 16 DAA ELEIN Obs: 10%
[2]; [9]
  Visual Weed Control (%) - 16 DAA ELEIN Obs: 10%

## COc1c(Cl)ccc(-c2nc(C(=O)OCc3ccccc3)c(Cl)c(N)c2F)c1F [Compound A Benzyl Ester]
[3]; [10]
  Visual Weed Control (%) - 18 DAA IPOHE Obs: 15%
[3]; [11]
  Visual Weed Control (%) - 18 DAA IPOHE Obs: 25%
[3]; [12]
  Visual Weed Control (%) - 18 DAA IPOHE Obs: 25%
[3]; [13]
  Visual Weed Control (%) - 18 DAA IPOHE Obs: 35%
[3]; [14]
  Visual Weed Control (%) - 18 DAA IPOHE Obs: 45%
[4]; [15]
  Visual Weed Control (%) - 18 DAA CYPES Obs: 40%
[4]; [16]
  Visual Weed Control (%) - 18 DAA CYPES Obs: 75%
[4]; [17]
  Visual Weed Control (%) - 18 DAA CYPES Obs: 80%
[4]; [18]
  Visual Weed Control (%) - 18 DAA CYPES Obs: 40%
[5]; [10]
  Visual Weed Control (%) - 18 DAA CIRAR Obs: 60%
[5]; [11]
  Visual Weed Control (%) - 18 DAA CIRAR Obs: 70%
[5]; [12]
  Visual Weed Control (%) - 18 DAA CIRAR Obs: 80%
[5]; [13]
  Visual Weed Control (%) - 18 DAA CIRAR Obs: 85%
[5]; [14]
  Visual Weed Control (%) - 18 DAA CIRAR Obs: 90%
[6]; [15]
  Visual Weed Control (%) - 18 DAA DIGSA Obs: 0%
[6]; [16]
  Visual Weed Control (%) - 18 DAA DIGSA Obs: 0%
[6]; [17]
  Visual Weed Control (%) - 18 DAA DIGSA Obs: 0%
[6]; Compound A Benzyl Ester 16 gae/ha alone, 18 DAA
  Visual Weed Control (%) - 18 DAA DIGSA Obs: 0%
[6]; Compound A Benzyl Ester 32 gae/ha alone, 18 DAA
  Visual Weed Control (%) - 18 DAA DIGSA Obs: 30%
[6]; [18]
  Visual Weed Control (%) - 18 DAA DIGSA Obs: 0%
[6]; Compound A Benzyl Ester alone, 4 gae/ha
  Visual Weed Control (%) - 18 DAA DIGSA Obs: 0%
[6]; Compound A Benzyl Ester alone, 8 gae/ha
  Visual Weed Control (%) - 18 DAA DIGSA Obs: 0%
[6]; Compound A Benzyl Ester alone, 16 gae/ha
  Visual Weed Control (%) - 18 DAA DIGSA Obs: 0%
[6]; Compound A Benzyl Ester alone, 32 gae/ha
  Visual Weed Control (%) - 18 DAA DIGSA Obs: 30%
[7]; [10]
  Visual Weed Control (%) - 18 DAA AMARE Obs: 50%
[7]; [11]
  Visual Weed Control (%) - 18 DAA AMARE Obs: 60%
[7]; [12]
  Visual Weed Control (%) - 18 DAA AMARE Obs: 85%
[7]; [13]
  Visual Weed Control (%) - 18 DAA AMARE Obs: 85%
[7]; [14]
  Visual Weed Control (%) - 18 DAA AMARE Obs: 100%

## CP(=O)(O)CCC(N)C(=O)O (stereo not drawn) [Glufosinate ammonium salt, 2-amino-4-(hydroxymethylphosphinyl)butanoic acid monoammonium salt, reference compound]
[3]; Glufosinate ammonium salt 112.5 gai/ha alone
  Visual Weed Control (%) - 18 DAA IPOHE Obs: 10%
[3]; [19]
  Visual Weed Control (%) - 18 DAA IPOHE Obs: 20%
[3]; Glufosinate ammonium salt 450 gai/ha alone
  Visual Weed Control (%) - 18 DAA IPOHE Obs: 50%
[4]; Glufosinate ammonium salt 112.5 gai/ha alone, 18 DAA
  Visual Weed Control (%) - 18 DAA CYPES Obs: 0%
[4]; [20]
  Visual Weed Control (%) - 18 DAA CYPES Obs: 0%
[4]; Glufosinate ammonium salt 450 gai/ha alone, 18 DAA
  Visual Weed Control (%) - 18 DAA CYPES Obs: 0%
[1]; [21]
  Visual Weed Control (%) - 16 DAA AVEFA Obs: 0%
[1]; [22]
  Visual Weed Control (%) - 16 DAA AVEFA Obs: 0%
[2]; [21]
  Visual Weed Control (%) - 16 DAA ELEIN Obs: 0%
[2]; [22]
  Visual Weed Control (%) - 16 DAA ELEIN Obs: 0%
[2]; glufosinate ammonium alone, 113 gae/ha
  Visual Weed Control (%) - 16 DAA ELEIN Obs: 10%
[5]; [19]
  Visual Weed Control (%) - 18 DAA CIRAR Obs: 15%
[6]; [20]
  Visual Weed Control (%) - 18 DAA DIGSA Obs: 25%
[7]; [19]
  Visual Weed Control (%) - 18 DAA AMARE Obs: 50%
